Measured values taken from US11912723B2, “KRAS modulators and uses thereof” (Quanta Therapeutics, Inc., priority 2022, dated 2024).

Tests used:
[1] = system: AGS (KRAS G12D) cells, phospho-ERK; test: pERK In Cell Western (ICW) assay (Method B); type: cell-based; conditions: Homo sapiens, 3 hours
Experimental: pERK ICW is a high throughput screening assay to evaluate the cellular potency of mutant KRAS small molecule inhibitors. KRAS mutant cell line AGS (KRAS^G12D) were purchased from ATCC and maintained in DMEM and RPMI medium supplemented with 10% fetal bovine serum and Penicillin/Streptomycin.
Cells grown in exponential phase were trypsinized, resuspended in fresh media, and viable cells were counted using a cell counter with Trypan Blue (BioRad TC20). Cells were seeded into 384-well plate (Greiner 781091) at density of 5,000 cells/well for AGS and allowed to grow overnight in a 37° C. CO2 incubator. The next day, compounds were dispensed into wells with a ½ log, 10-point serial dilution and top concentration of 10 μM using Tecan D300e dispenser and incubated for 3 hours in a 37° C. CO2 incubator. Cells were then fixed with paraformaldehyde (Electron Microscopy Sciences, 15710, 4% final concentration) for 30 min, permeabilized with wash buffer (1×PBS+0.1% Triton X-100) for 30 min and blocked with Odyssey blocking buffer (Li—COR 927-70001) for 1 hour, all at room temperature (RT). Phospho-ERK antibody (CST 4370L) was diluted 1:500 in Odyssey blocking+0.2% Tween 20 and incubated with cells overnight at 4° C. The next day, plates were washed 5× with wash buffer, incubated with IRDye 800 CW, Goat anti-Rabbit secondary antibody (Li—COR 926-32211, 1:500) and DRAQ5 (CST 4084L, 1:5,000) diluted in Odyssey blocking+0.2% Tween 20 for 1 hour, washed 5×, and imaged on an Odyssey CLx imaging system.
For data analysis, signal intensities from 800 (phosphor-ERK) and 700 (DRAQ5) channels were extracted, and phospho-ERK signals were normalized to DRAQ5 signals for each well and percent of DMSO control values were computed. Data were then imported into Graphpad Prism to compute half-maximal inhibitory concentrations (IC50) using a 4-parameter variable slope model. Z-factor for each plate was computed from signals derived from wells treated with either DMSO or 5 μM of Trametinib. AGS pERK ICW (Method B) IC50 (uM) values of selected compounds are depicted in Table 2 with compounds having a value 0.001 uM to 0.01 uM as ++++; >0.01 uM to 0.1 uM as +++; >0.1 uM to 1 uM as ++; 1 uM to 10 uM as + and >10 uM as NA.

[2] = molecular target: T1, GST-tagged KRAS G12D (2-169) (Homo sapiens, UniProt P01116, G12D); test: Nucleotide exchange assay (NEA), HTRF of SOS-mediated GTP-DY-647P1 binding; type: biochemical; conditions: 5 nM GST-KRAS G12D, 20 nM SOScat, 150 nM GTP; compound 1 h at RT
T1 construct: GST-tagged KRAS^G12D (2-169, Reaction Biology, MSC-11-539); purchased Reaction Biology MSC-11-539 (KRAS G12D); MSC-11-502 (SOS1cat)
Procedure, shortened: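 SOS1cat (564-1049)-driven loading of GTP-DY-647P1 onto KRAS G12D, read by HTRF with anti-GST Tb cryptate donor; compound preincubated with KRAS 1 h at RT. Final 5 nM KRAS, 20 nM SOScat, 150 nM GTP, pH 7.3 HEPES buffer; read up to 90 min at RT. Blanked to no-SOS1; 4-parameter fit of % inhibition.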

KRAS G12D/RAF1 = molecular target: T2, KRAS G12D/RAF1 (Homo sapiens, UniProt P01116, G12D); test: Protein-protein interaction (PPI) HTRF assay KRAS G12D/RAF1; type: binding; conditions: KRAS G12D/RAF1, GppNHp-loaded KRAS; 30 minutes pre-incubation
T2 construct: KRAS (1-169) proteins were expressed in E. coli at 18° C; His6-MBP (N, cleaved yes); made in house; host or cells: E. coli
Procedure, shortened: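 Biotinylated GppNHp-loaded RAS (1-169) on streptavidin-d2 acceptor and His-RAF1 RBD (52-131) on anti-His Tb donor, each prepared at 16 nM in pH 7.5 Tris buffer. Compound preincubated with RAS 30 min, then RAF1 added for 1 h at room temperature. IC50 from HTRF 665/615 ratio, normalized to no compound (0%) and untagged RAF1 (100%).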

| Compound | IC50 [1] | IC50 [2] | IC50 (KRAS G12D/RAF1) |
| --- | --- | --- | --- |
| Oc1ccc(Cl)c2c1C1(CC2)Cc2nc(OC[C@@]34CCCN3C[C@H](F)C4)nc(N3CCCCCC3)c2CO1 (mixture of isomers) [Compound 9, 4-(azepan-1-yl)-7′-chloro-2-[[rac-(2R,8S)-2-fluoro-1,2,3,5,6,7-hexahydropyrrolizin-8-yl]methoxy]spiro[5,8-dihydropyrano[4,3-d]pyrimidine-7,3′-indane]-4′-ol] | 1 to 10 µM | 1 to 20 µM |  |
| CN(C)C(=O)c1cc2n(n1)CCCN(c1nc(OC[C@@]34CCCN3C[C@H](F)C4)nc3c1COC1(CCc4ccc(OC(F)F)cc41)C3)C2 (mixture of isomers) [Compound 41, 5-[6′-(difluoromethoxy)-2-[[rac-(2R,8S)-2-fluoro-1,2,3,5,6,7-hexahydropyrrolizin-8-yl]methoxy]spiro[5,8-dihydropyrano[4,3-d]pyrimidine-7,1′-indane]-4-yl]-N,N-dimethyl-4,6,7,8-tetrahydropyrazolo[1,5-a][1,4]diazepine-2-carboxamide] | > 10 µM | 1 to 20 µM |  |
| CN(C)C(=O)c1cc2n(n1)CCCN(c1nc(OC[C@@]34CCCN3C[C@H](F)C4)nc3c1COC1(CCc4c(OC(F)F)cccc41)C3)C2 (mixture of isomers) [Compound 48, 5-[4′-(difluoromethoxy)-2-[[rac-(2R,8S)-2-fluoro-1,2,3,5,6,7-hexahydropyrrolizin-8-yl]methoxy]spiro[5,8-dihydropyrano[4,3-d]pyrimidine-7,1′-indane]-4-yl]-N,N-dimethyl-4,6,7,8-tetrahydropyrazolo[1,5-a][1,4]diazepine-2-carboxamide] | > 10 µM | 1 to 20 µM |  |
| CN(C)C(=O)c1cc2n(n1)CCCN(c1nc(OC[C@@]34CCCN3C[C@H](F)C4)nc3c1CN(C)[C@]1(CCCc4ccc(O)cc41)C3)C2 [Compound 39B, 5-[(7R)-2-[[(2R,8S)-2-fluoro-1,2,3,5,6,7-hexahydropyrrolizin-8-yl]methoxy]-7′-hydroxy-6-methyl-spiro[5,8-dihydropyrido[4,3-d]pyrimidine-7,1′-tetralin]-4-yl]-N,N-dimethyl-4,6,7,8-tetrahydropyrazolo[1,5-a][1,4]diazepine-2-carboxamide] | > 10 µM | 1 to 20 µM |  |
| CN1Cc2c(nc(OC[C@@]34CCCN3C[C@H](F)C4)nc2N2CCC[C@]3(C2)NC(=O)NC3=O)C[C@]12CCc1cccc(F)c12 [Compound 66, (5R)-9-[(7S)-7′-fluoro-2-[[(2R,8S)-2-fluoro-1,2,3,5,6,7-hexahydropyrrolizin-8-yl]methoxy]-6-methyl-spiro[5,8-dihydropyrido[4,3-d]pyrimidine-7,1′-indane]-4-yl]-1,3,9-triazaspiro[4.5]decane-2,4-dione] | > 10 µM | 0.01 to 0.1 µM |  |
| CN1Cc2c(nc(OC[C@@]34CCCN3C[C@H](F)C4)nc2N2CCC[C@]3(C2)NC(=O)NC3=O)C[C@]12CCc1c(F)ccc(F)c12 [Compound 67, (5R)-9-[(7S)-4′,7′-difluoro-2-[[(2R,8S)-2-fluoro-1,2,3,5,6,7-hexahydropyrrolizin-8-yl]methoxy]-6-methyl-spiro[5,8-dihydropyrido[4,3-d]pyrimidine-7,1′-indane]-4-yl]-1,3,9-triazaspiro[4.5]decane-2,4-dione] | > 10 µM | 0.01 to 0.1 µM |  |
| CN1Cc2c(nc(OC[C@@]34CCCN3C[C@H](F)C4)nc2N2CCn3cncc3C2)C[C@]12CCCc1ccccc12 [Compound 91, (7S)-4-(6,8-dihydro-5H-imidazo[1,5-a]pyrazin-7-yl)-2-[[(2R,8S)-2-fluoro-1,2,3,5,6,7-hexahydropyrrolizin-8-yl]methoxy]-6-methyl-spiro[5,8-dihydropyrido[4,3-d]pyrimidine-7,1′-tetralin]] |  | 1 to 20 µM | > 100 µM |
| CN1Cc2c(nc(OC[C@@]34CCCN3C[C@H](F)C4)nc2N2CCCn3nc(-c4cccc(O)n4)cc3C2)C[C@]12CCCc1ccccc12 [Compound 92, 6-[5-[(7S)-2-[[(2R,8S)-2-fluoro-1,2,3,5,6,7-hexahydropyrrolizin-8-yl]methoxy]-6-methyl-spiro[5,8-dihydropyrido[4,3-d]pyrimidine-7,1′-tetralin]-4-yl]-4,6,7,8-tetrahydropyrazolo[1,5-a][1,4]diazepin-2-yl]pyridin-2-ol] |  | 0.1 to 1 µM | > 100 µM |
| CN1Cc2c(nc(OC[C@@]34CCCN3C[C@H](F)C4)nc2N2CCCn3nc(-c4ccccn4)c(Cl)c3C2)C[C@]12CCCc1ccccc12 [Compound 93, (7S)-4-[3-chloro-2-(2-pyridyl)-4,6,7,8-tetrahydropyrazolo[1,5-a][1,4]diazepin-5-yl]-2-[[(2R,8S)-2-fluoro-1,2,3,5,6,7-hexahydropyrrolizin-8-yl]methoxy]-6-methyl-spiro[5,8-dihydropyrido[4,3-d]pyrimidine-7,1′-tetralin]] |  | < 0.01 µM | 10 to 100 µM |
| C[C@@H]1Cn2cncc2CN1c1nc(OC[C@@]23CCCN2C[C@H](F)C3)nc2c1CN(C)[C@@]1(CCCc3ccccc31)C2 [Compound 94, (7S)-2-[[(2R,8S)-2-fluoro-1,2,3,5,6,7-hexahydropyrrolizin-8-yl]methoxy]-6-methyl-4-[(6R)-6-methyl-6,8-dihydro-5H-imidazo[1,5-a]pyrazin-7-yl]spiro[5,8-dihydropyrido[4,3-d]pyrimidine-7,1′-tetralin]] |  | 1 to 20 µM | > 100 µM |
| CN(C)C(=O)c1nn2c(c1Cl)CN(c1nc(OCC3(CN4CCOCC4)CC3)nc3c1CN(C)[C@@]1(CCCc4ccccc41)C3)CCC2 [Compound 95, 3-chloro-N,N-dimethyl-5-[(7S)-6-methyl-2-[[1-(morpholinomethyl)cyclopropyl]methoxy]spiro[5,8-dihydropyrido[4,3-d]pyrimidine-7,1′-tetralin]-4-yl]-4,6,7,8-tetrahydropyrazolo[1,5-a][1,4]diazepine-2-carboxamide] |  | < 0.01 µM | > 100 µM |
| CN1Cc2c(nc(OC[C@@]34CCCN3C[C@H](F)C4)nc2N2CCCn3nc(CC#N)c(Cl)c3C2)C[C@]12CCCc1ccccc12 [Compound 98, 2-[3-chloro-5-[(7S)-2-[[(2R,8S)-2-fluoro-1,2,3,5,6,7-hexahydropyrrolizin-8-yl]methoxy]-6-methyl-spiro[5,8-dihydropyrido[4,3-d]pyrimidine-7,1′-tetralin]-4-yl]-4,6,7,8-tetrahydropyrazolo[1,5-a][1,4]diazepin-2-yl]acetonitrile] |  | < 0.01 µM | > 100 µM |
| CCN1Cc2c(nc(OC[C@@]34CCCN3C[C@H](F)C4)nc2N2CCCn3nc(C(=O)N(C)C)c(Cl)c3C2)C[C@]12CCCc1ccccc12 [Compound 100, 3-chloro-5-[(7S)-6-ethyl-2-[[(2R,8S)-2-fluoro-1,2,3,5,6,7-hexahydropyrrolizin-8-yl]methoxy]spiro[5,8-dihydropyrido[4,3-d]pyrimidine-7,1′-tetralin]-4-yl]-N,N-dimethyl-4,6,7,8-tetrahydropyrazolo[1,5-a][1,4]diazepine-2-carboxamide] |  | 0.01 to 0.1 µM | > 100 µM |
| [5-[(7S)-4′-chloro-2-[[(2R,8S)-2-fluoro-1,2,3,5,6,7-hexahydropyrrolizin-8-yl]methoxy]spiro[5,8-dihydropyrano[4,3-d]pyrimidine-7,1′-indane]-4-yl]-4,6,7,8-tetrahydropyrazolo[1,5-a][1,4]diazepin-2-yl]-pyrrolidin-1-yl-methanone [Compound 34] |  | < 0.01 µM | > 100 µM |
